In patent US5843481A, “Treatment of proliferative disorders, metastasaes, and drug resistant tumors with vanadate compounds and derivatives or analogues thereof” (priority 1994, dated 1998):

How the values were obtained:
MDAY-D2 [1] = assay: MDAY-D2 tumor growth in mice, three vanadyl compounds, Example 6B; format: in vivo
From the text: (§1) In order to examine the ability of vanadyl compounds to reduce tumor formation, growth and metastases, a specific animal model which allows investigation of all of these processes in the same animal was chosen. This model involves the injection of a metastatic haematopoietic cell line, MDAY-D2, into mice subcutaneously. These cells form a tumor at the site of injection and its size can be easily determined. In addition, these cells metastasize to the liver and metastases can be detected histologically after day 17 to 19. This model provides a very sensitive and reproducible approach to investigate the effect of vanadyl compounds on tumor growth and metastases.
In a separate experiment using the same animal model, the effect of orthovanadate, vanadyl sulphate and vanadyl hydroperoxide administration on tumor growth in vivo was examined. On Day 1, 20 mice were injected with 2×10^5 MDAY-D2 cell subcutaneously. The mice were divided into four groups of five mice. At day 5, the animals were injected subcutaneously with 50 μl of water alone or containing 10 mg/ml of orthovanadate, 10 mg/ml of vanadyl sulphate, or 10 mg/ml of vanadyl hydroperoxide. This treatment was continued daily for 16 days. At day 21, the mice were sacrificed and the tumors dissected and weighed.

superoxides and H2O2 = assay: Levels of superoxides and H2O2 in cells (conclusion of Example 1); format: cell-based, bovine; conditions: conclusion from results
Description: (§2) Bovine articular chondrocytes were isolated and plated as previously described (Kandel R. A. et al. Biochim. Biophys. Acta. 1053, 130-134, 1990). In order to determine the effect of orthovanadate on IL 1 and PMA (phorbol ester) induced responses, chondrocytes were incubated with orthovanadate (100 μM) for 2 hours before stimulation with IL 1 (10 ng/ml) or PMA ([…]). collagenase production was determined by incubating chondrocytes for 24 hours with IL 1 or PMA and the cell conditioned medium was assayed for collagenase activity using an ELISA procedure as described previously (Kandel et al. supra) PLA2 activity was measured by incorporating ^3 H-arachidonic acid (^3 H-AA) into the cells and then incubating the cells with medium containing 1 mg/ml BSA, either alone or in the presence of IL 1 or PMA, for 10 min. as previously described (Conquer, J. A. […], Biochim. Biophys. Acta. 1134, 1-6). The amount of ^3 H-AA liberated into the supernatant was determined. To measure PGE2 production, chondrocytes were incubated for 6 hours in Ham's F12 medium, either alone or with IL 1 or PMA. The supernatant was analyzed by RIA using an antibody specific for PGE2 (Dr. S. A. Jones, Mount Sinai Hospital, Toronto, Can.). In order to examine the expression of c-fos and c-jun, chondrocytes were incubated for 1 hour in the presence of IL-1, PMA or AA (3 μM). […]

[2] = Tolerability/toxicity of orthovanadate in mice, Example 9; format: in vivo
From the text: However, subcutaneous injections of up to 500 μgms orthovanadate is tolerated by the animals. Slow administration of the orthovanadate would decrease toxicity and the animals may tolerate higher doses.

MDAY-D2 [3] = assay: Liver metastases of MDAY-D2 cells in mice (histology), Example 8; format: in vivo
From the text: as §1
Livers were removed from animals treated as described above and prepared for histological examination. FIG. 16 compares liver sections from untreated (C), orthovanadate (VO)(500 μg/day) and vanadyl sulphate (VS)(500 μg/day) treated animals. Nodules are identified with an arrow.

collagenase = assay: Collagenase production by chondrocytes (ELISA of conditioned medium); format: cell-based, bovine; conditions: orthovanadate 100 uM, 2 hours before stimulation
Description: as §2

[4] = test system: proliferating chondrocytes; assay: Viability of proliferating chondrocytes (low cell density); format: cell-based, bovine; conditions: 0-50 μM, 48 hours; FIG. 6
Description: As described in example 1, orthovanadate inhibited fos, jun and collagenase expression. If fos and jun expression are required for cellular proliferation, then orthovanadate should inhibit chondrocyte proliferation. In order to compare the effect of orthovanadate on non-proliferating and proliferating chondrocytes, chondrocytes were plated at both high cell density (2×10^6 to 4×10^6 cells/per well on a six well plate) (nonproliferating) and at a lower cell density (5×10^5 to 1×10^6 cells/per well on a six well plate) (proliferating) and then maintained for 48 hours. The cells were then incubated in media (HAMS F12) containing 0-50 μM Orthovanadate for an additional 48 hours. The cells were harvested and the number of viable cells determined.

PLA2 = assay: 3H-arachidonic acid release by chondrocytes (PLA2 activity); format: cell-based, bovine; conditions: orthovanadate 100 uM
Description: as §2

[5] = Dose required to reach serum concentration highly toxic to cancer cells; set-up: species or system animals; conditions: in vivo
MDAY-D2 cells = assay: Viability of MDAY-D2 cells with different vanadyl compounds; format: cell-based, mouse; conditions: 0-50 μM, 48 hours; FIG. 8
Description: Three different forms of vanadyl compounds were examined for their effect on viability of cancer cell lines. MDAY-D2 cells were incubated in media containing 0-50 μM orthovanadate, vanadyl sulphate, or vanadyl hydroperoxide for 48 hours. The cells were harvested and the number of viable cells determined. […] Although there were slight differences in sensitivity, the overall cell death was similar.

MDAY-D2 [6] = assay: MDAY-D2 tumor growth in mice, Example 6A; format: in vivo
From the text: as §1
Using the animal model described above, the effect of subcutaneous administration of orthovanadate on tumor growth was investigated. A total of 15 mice were injected subcutaneously with 1×10^5 MDAY-D2 cells on Day 1. On Day 5, small tumors could be observed at the site of injection. Five mice were injected daily with 50 μl of water alone and 10 mice were injected daily with water containing 10 mg/ml orthovanadate. On day 14, the mice were sacrificed. The tumors were removed from all the animals, photographed, and weighed. FIG. 11 compares sizes of tumors from two untreated and two orthovanadate treated mice. […] In animals treated with water alone, four mice had tumors weighing between 1.18 and 1.68 gms.

PGE2 = PGE2 production by chondrocytes (RIA); format: cell-based, bovine; conditions: orthovanadate 100 uM
Description: as §2

[O]=[V]([O-])([O-])[O-] [orthovanadate]
effect on tumor growth, in words (MDAY-D2 [1]; 10 mg/ml s.c. daily): most efficacy in reducing tumor growth
mice without detectable tumors (MDAY-D2 [1]; 10 mg/ml s.c., day 21): one mouse did not have detectable tumors
animals that died (MDAY-D2 [1]; 10 mg/ml, 50 μl s.c. daily for 16 days, groups of five mice): One animal died
levels of superoxides and H2O2 in cells (superoxides and H2O2): indirectly reduce
intraperitoneal toxicity ([2]; intraperitoneal, high doses): toxic
oral toxicity ([2]; oral, 0.5 mg/ml, laboratory mice): gastric toxicity
tolerated dose, subcutaneous ([2]; subcutaneous injections): up to 500 μgms
levels of metastases in liver (MDAY-D2 [3]; 500 μg/day, FIG. 16): did not have detectable levels of metastases
effectiveness at preventing metastases (MDAY-D2 [3]; preliminary results, liver histology): effective at preventing metastases
collagenase production (IL 1 or PMA) (collagenase): completely inhibited
toxicity to cells plated at low cell density (proliferating) [4]: toxic
IL 1 or PMA induced release of 3H-AA (PLA2): did not inhibit
dose required to reach serum concentrations highly toxic to cancer cells [5]: at least 0.2 mg/kg
effectiveness in killing MDAY-D2 cells (MDAY-D2 cells): equally effective
tumor size (five mice) (MDAY-D2 [6]; 10 mg/ml s.c. daily, day 14, five of 10 mice): less than 0.16 gms
mice without detectable tumors (MDAY-D2 [6]; 10 mg/ml, 50 μl s.c. daily, day 14, of 10 mice, FIG. 12): 2 mice
tumor size of treated mice versus untreated (MDAY-D2 [6]; FIG. 11): either undetectable or considerably smaller
production of PGE2 (IL 1 or PMA) (PGE2): did not inhibit
